Laboratory results taken from ChEMBL document CHEMBL1201862, “PubChem BioAssay data set” (2004).
Calls of active or inactive are those of the source.

Columns and labels:
[1] = molecular target: T1, Streptokinase A (Streptococcus pyogenes serotype M1, UniProt P10520); assay: S. pyogenes streptokinase expression inhibitors, potency, dose response, plasminogen activation absorbance, OD405 (AID 1914); assay type: functional, Streptococcus pyogenes M1 GAS;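 further: secreted streptokinase activity via plasminogen activation per viability signal from cell pellet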
T1 sequence (P10520 whole entry): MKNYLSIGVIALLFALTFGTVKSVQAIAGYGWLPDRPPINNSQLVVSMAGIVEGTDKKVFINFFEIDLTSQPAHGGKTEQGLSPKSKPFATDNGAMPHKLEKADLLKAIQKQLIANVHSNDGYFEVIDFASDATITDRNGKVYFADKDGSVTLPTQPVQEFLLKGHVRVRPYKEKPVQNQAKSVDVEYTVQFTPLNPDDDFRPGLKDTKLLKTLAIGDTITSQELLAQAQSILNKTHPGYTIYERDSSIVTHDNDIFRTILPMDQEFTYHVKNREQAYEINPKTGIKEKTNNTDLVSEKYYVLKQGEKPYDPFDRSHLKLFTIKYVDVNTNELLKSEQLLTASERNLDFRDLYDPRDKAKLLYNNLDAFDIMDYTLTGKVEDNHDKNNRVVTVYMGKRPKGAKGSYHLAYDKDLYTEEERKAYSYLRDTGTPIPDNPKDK

[2] = tested on: Streptococcus; assay: Group A Streptococcus viability loss, dose response, counter-screen for streptokinase expression inhibitor project, luminescence, BacTiterGlo (AID 1915); assay type: functional, organism-based;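 further: potency for reduction of bacterial viability or growth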
[3] = THP-1 cell cytotoxicity, dose response, cytotoxicity control for Vif-APOBEC3G degradation inhibitor project, THP-1 cells (AID 1117359); assay type: functional; conditions: Human immunodeficiency virus 1, THP-1
[4] = tested on: Streptococcus sp. 'group A'; assay: growth inhibition of control SK(-) GAS strain, dose response, counter-screen for streptokinase expression inhibitor project, luminescence, kanamycin, BacTiterGlo, confirmation (AID 1900); assay type: functional, organism-based
[5] = molecular target: Beta-galactosidase (Escherichia coli, UniProt Q8VNN2); assay: beta-galactosidase enzyme inhibitors and activators, dose response, artefact control for CCR6 antagonist project, biochemical, E. coli enzyme, set 3 (AID 504712); assay type: functional
[6] = molecular target: T2, Histone-lysine N-methyltransferase NSD2 (Homo sapiens, UniProt O96028); assay type: biochemical
T2 sequence (O96028 whole entry): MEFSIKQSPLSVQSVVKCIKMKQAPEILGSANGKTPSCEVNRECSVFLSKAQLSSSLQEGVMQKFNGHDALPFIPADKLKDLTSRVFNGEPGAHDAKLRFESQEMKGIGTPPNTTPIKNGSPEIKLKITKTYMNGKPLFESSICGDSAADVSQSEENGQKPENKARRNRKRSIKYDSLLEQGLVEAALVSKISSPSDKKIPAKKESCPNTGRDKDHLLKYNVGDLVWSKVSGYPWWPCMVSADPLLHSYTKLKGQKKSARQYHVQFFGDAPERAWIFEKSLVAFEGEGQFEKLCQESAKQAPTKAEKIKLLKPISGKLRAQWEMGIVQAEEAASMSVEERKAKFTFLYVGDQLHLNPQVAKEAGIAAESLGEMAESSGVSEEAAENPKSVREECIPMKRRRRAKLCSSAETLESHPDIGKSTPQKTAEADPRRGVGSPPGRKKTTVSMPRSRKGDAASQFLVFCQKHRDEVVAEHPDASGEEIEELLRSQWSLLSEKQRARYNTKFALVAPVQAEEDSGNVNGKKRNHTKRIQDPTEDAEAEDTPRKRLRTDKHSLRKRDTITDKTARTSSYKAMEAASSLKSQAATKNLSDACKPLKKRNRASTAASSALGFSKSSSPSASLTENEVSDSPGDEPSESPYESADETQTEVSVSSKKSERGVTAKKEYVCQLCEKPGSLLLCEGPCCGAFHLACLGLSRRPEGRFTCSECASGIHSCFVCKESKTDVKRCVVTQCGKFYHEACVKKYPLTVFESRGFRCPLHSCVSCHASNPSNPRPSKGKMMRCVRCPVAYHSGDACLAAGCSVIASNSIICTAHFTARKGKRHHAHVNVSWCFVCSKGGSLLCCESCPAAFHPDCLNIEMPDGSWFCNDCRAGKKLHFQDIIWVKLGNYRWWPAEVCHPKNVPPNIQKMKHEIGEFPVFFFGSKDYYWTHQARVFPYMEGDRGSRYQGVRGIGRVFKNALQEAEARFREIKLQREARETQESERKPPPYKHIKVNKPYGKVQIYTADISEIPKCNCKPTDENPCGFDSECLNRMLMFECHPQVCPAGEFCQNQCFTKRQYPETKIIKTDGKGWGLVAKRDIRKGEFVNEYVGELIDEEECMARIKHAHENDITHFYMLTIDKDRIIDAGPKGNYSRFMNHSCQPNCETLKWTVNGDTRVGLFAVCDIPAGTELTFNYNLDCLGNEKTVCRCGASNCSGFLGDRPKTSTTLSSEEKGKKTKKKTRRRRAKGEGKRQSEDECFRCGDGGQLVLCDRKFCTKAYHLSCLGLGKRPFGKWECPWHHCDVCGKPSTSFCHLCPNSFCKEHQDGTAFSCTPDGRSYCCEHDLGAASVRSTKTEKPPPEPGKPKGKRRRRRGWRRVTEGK

[7] = molecular target: Eukaryotic translation initiation factor 4E (Mus musculus, UniProt P63073); assay: eIF4E–eIF4G protein interaction inhibitors, dose response, biochemical, TR-FRET (AID 855); assay type: functional;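 further: potency for disrupting eIF4E binding to eIF4GI seen as loss of FRET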
[8] = molecular target: Prothrombin (Homo sapiens, UniProt P00734); assay: Thrombin 1536 HTS Dose Response Confirmation. [Related pubchem assays: 1046 (Thrombin 1536 HTS; hits were confirmed in this assay)]; assay type: functional
[9] = inhibitors of PGC1a acetylation in cells, dose response, cell-based, cherry-picked samples (AID 720514); assay type: functional;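 further: potency may reflect raised or lowered acetylation signal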
[10] = molecular target: Paired box protein Pax-8 (Homo sapiens, UniProt Q06710); assay: inhibitors of PAX8-driven TPO luciferase reporter, dose response, RMG-I cells, cherry-pick (AID 687027); assay type: functional, cell-based;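 further: luciferase reporter driven by Pax8 target thyroperoxidase promoter measured by SteadyGlo luminescence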
[11] = P. falciparum Dd2 growth inhibitors, dose response, SYBR Green, cherry-picked samples (AID 1159567); assay type: functional, cell-based
[12] = HepG2 cell cytotoxicity, dose response, cytotoxicity control, cherry-picked samples (AID 1159577); assay type: functional, cell-based
[13] = molecular target: T3, Rac GTPase-activating protein 1 (Homo sapiens, UniProt Q9H0H5); assay: MgcRacGAP GTPase-activating activity inhibitors, confirmation, biochemical, ADP Hunter fluorescence, primary and confirmatory (AID 624330); assay type: functional
T3 sequence (Q9H0H5 whole entry): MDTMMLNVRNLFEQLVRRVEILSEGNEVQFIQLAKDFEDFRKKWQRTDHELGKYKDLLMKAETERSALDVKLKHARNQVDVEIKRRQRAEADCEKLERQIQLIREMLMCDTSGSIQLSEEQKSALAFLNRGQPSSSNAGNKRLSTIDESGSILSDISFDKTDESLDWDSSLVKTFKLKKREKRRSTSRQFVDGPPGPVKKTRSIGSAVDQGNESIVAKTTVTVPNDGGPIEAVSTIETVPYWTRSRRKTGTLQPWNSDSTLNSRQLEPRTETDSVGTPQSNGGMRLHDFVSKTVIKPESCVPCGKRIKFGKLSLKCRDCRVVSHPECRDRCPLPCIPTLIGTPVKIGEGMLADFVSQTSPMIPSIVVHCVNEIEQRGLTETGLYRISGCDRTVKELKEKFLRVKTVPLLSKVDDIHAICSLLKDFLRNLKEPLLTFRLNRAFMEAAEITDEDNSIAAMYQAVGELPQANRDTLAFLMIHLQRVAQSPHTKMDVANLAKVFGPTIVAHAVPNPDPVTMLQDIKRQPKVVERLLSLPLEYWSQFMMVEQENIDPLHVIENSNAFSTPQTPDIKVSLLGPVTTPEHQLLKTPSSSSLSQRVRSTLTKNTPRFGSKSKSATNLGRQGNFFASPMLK

[14] = molecular target: FAD-linked sulfhydryl oxidase ALR (Homo sapiens, UniProt P55789); assay: inhibitors of human ALR sulfhydryl oxidase, dose response, biochemical, H2O2 detection, luminescence, cherry-pick (AID 493248)
[15] = molecular target: Large T antigen (Simian virus 40, UniProt P03070); assay type: functional, Betapolyomavirus macacae;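 further: Confirmatory-stage PubChem screen for compounds that inhibit SV40 T antigen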
Sequence of Large T antigen (P03070 whole entry): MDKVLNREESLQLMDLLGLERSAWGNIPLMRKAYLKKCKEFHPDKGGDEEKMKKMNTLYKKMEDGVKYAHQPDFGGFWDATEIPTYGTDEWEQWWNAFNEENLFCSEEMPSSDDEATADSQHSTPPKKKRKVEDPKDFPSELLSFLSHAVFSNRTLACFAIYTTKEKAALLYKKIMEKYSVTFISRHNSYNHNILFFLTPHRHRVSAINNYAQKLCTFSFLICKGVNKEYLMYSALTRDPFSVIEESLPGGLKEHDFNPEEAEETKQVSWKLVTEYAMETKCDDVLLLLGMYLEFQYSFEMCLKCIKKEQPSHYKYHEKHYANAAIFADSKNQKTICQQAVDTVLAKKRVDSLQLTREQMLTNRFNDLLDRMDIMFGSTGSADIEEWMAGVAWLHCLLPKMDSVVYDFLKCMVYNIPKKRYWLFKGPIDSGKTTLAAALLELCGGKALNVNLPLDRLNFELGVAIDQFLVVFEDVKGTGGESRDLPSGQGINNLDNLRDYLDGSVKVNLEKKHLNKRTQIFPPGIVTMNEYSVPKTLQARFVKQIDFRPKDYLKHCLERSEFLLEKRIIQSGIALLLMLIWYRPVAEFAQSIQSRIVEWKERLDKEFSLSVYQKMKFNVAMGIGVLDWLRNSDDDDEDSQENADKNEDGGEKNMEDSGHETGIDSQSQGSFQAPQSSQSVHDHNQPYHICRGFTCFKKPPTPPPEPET

Sequence of Beta-galactosidase (Q8VNN2 whole entry): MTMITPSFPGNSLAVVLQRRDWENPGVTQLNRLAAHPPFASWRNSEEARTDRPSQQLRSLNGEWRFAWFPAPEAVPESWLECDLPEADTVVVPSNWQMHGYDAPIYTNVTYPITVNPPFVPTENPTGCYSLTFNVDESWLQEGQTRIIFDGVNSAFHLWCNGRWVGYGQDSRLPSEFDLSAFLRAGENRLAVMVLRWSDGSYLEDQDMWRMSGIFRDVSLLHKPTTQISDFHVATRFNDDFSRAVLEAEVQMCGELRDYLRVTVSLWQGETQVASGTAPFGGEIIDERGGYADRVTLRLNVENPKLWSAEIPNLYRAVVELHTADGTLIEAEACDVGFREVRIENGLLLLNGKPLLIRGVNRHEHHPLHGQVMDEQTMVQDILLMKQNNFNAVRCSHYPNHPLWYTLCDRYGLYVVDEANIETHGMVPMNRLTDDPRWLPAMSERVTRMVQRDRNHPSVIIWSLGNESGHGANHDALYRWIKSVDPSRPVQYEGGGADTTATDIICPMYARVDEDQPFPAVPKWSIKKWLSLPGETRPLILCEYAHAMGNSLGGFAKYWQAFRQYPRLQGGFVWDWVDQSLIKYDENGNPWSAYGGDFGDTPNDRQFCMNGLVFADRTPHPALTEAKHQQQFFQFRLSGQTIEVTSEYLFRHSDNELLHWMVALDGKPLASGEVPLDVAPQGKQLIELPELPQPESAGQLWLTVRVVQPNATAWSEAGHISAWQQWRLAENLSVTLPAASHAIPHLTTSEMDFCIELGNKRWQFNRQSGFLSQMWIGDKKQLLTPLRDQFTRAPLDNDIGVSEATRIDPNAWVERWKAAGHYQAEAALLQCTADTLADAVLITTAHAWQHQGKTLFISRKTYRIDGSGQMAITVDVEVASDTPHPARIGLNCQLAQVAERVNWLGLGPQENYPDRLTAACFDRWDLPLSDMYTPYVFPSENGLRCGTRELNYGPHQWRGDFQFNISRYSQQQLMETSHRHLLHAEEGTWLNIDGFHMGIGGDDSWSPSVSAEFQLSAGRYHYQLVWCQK
Sequence of FAD-linked sulfhydryl oxidase ALR (P55789 whole entry): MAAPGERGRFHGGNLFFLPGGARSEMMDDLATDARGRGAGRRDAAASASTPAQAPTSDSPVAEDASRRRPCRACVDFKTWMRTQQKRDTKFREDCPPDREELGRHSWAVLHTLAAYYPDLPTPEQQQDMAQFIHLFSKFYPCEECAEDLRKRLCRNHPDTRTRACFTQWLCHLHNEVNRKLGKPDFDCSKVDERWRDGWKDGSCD
Sequence of Eukaryotic translation initiation factor 4E (P63073 whole entry): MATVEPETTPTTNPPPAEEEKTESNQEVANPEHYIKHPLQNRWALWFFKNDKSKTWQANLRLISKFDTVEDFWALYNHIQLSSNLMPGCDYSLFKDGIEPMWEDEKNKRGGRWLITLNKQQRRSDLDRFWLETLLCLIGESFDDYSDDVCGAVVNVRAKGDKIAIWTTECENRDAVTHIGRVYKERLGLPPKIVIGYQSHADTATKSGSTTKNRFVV
Sequence of Paired box protein Pax-8 (Q06710 whole entry): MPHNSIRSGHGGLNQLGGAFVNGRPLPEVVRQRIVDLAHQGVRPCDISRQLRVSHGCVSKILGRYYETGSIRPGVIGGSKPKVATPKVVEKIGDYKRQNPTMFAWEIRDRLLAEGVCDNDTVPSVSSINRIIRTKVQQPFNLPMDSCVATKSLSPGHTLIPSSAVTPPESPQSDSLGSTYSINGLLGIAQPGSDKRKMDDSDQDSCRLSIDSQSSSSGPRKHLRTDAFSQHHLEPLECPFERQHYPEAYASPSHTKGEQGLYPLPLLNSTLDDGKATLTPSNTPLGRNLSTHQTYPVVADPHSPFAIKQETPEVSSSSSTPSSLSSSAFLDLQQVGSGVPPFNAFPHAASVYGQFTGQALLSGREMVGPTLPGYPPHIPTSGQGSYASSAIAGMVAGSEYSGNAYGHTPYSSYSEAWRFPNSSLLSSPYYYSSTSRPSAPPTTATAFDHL

## Cc1cc(C)c(C)c(OCCCOc2cccc3cccnc23)c1
[1]
  EC50: > 150 µM (not active)
[2]
  EC50: 39.4 µM (active)
[3]
  CC50: 15.4 µM (active)
[4]
  EC50: 13.1 µM (active)

## CCOc1cccc(C(=O)NC(=S)Nc2cccc(C)c2)c1
[5]
  IC50: > 66.6 µM (inactive)

## CNCCCCOc1ccccc1-c1ccccc1
[6]
  AC50: > 20 µM (inactive)

## Oc1n[nH]c(CSCc2ccccc2Cl)n1
[7]
  IC50: > 64 µM (inactive)

## O=C(Cc1ccccc1)n1nc(-c2ccccc2)nc1NCc1ccco1
[8]
  IC50: 0.1 µM (active)

## COc1ccc(-c2cc(C)nc(SCC(=O)c3cccc([N+](=O)[O-])c3)n2)cc1
[3]
  CC50: > 40 µM (active)

## CCN(CC)CCNC(=O)Cc1nn(Cc2ccccc2)c(=O)c2ccccc12
[6]
  AC50: > 20 µM (inactive)

## C[C@H](CO)N1C[C@H](C)[C@H](CN(C)C(=O)NC2CCCCC2)Oc2cc(C#Cc3cccc(F)c3)ccc2S1(=O)=O
[9]
  AC50: 14.1 µM (active)
[10]
  AC50: 6.2 µM (active)

## OC[C@@H]1[C@H](c2ccc(C#CC3CCCC3)cc2)[C@H]2CN(CCC(F)(F)F)CCCCN12
[11]
  AC50: 1.43 µM (active)
[9]
  AC50: 10.4 µM (active)
[12]
  AC50: 9.12 µM (active)

## O=C1CS/C(=N\c2ccc(O)cc2)N1c1ccc(O)cc1
[13]
  IC50: 51.9 µM (active)
[14]
  AC50: 3.26 µM (active)
[15]
  IC50: 11.4 µM (active)

## O=C1c2ccccc2-[n+]2ccc3c([nH]c4ccccc43)c21 [FASCAPLYSIN]
[9]
  AC50: 0.358 µM (active)
